Results as given in US5270186A, “Antitumor antibiotic BMY-42448” (Bristol-Myers Squibb Company, priority 1991, dated 1993).
≈ marks a conversion by molar mass, not a printed value.

Tests used:
B-16 melanoma = test: In vitro cytotoxicity, crystal violet staining; assay type: cell-based, murine; details: for IC50: Mus musculus, B16, 72 h, B-16 melanoma, 3 days with drug
Procedure: (§1) A 150 μl aliquot of culture media containing 3750 cells was plated into each well of a 96 well microtiter plate on day 0 and allowed to attach by incubation for 24 hours at 37° C. in a 5% carbon dioxide atmosphere. Drugs were then added to the top row of the wells and serially diluted down the plate (except for the untreated control column on each plate). The cells and drug were incubated together as above for 3 days. Following incubation, dead unattached cells and media were removed by inverting the plate. Cells that are undamaged by the drug remain attached to the plate. […] The fixing solution was removed by inverting the plate and the plates were air-dried.

HCT-116 colon = test: In vitro cytotoxicity, crystal violet staining; assay type: cell-based, human; details: for IC50: Homo sapiens, 72 h, HCT-116 colon, 3 days with drug
Procedure: as §1

[1] = In vivo P388 murine leukemia model, ip implant / ip treatment; set-up: species or system murine (CDF1 female mice); details: mouse, p388 leukemia model; ip once a day for 5 days; read-out: maximum tolerated dose
Procedure: (§2) BMY-42448 was also tested in vivo in the P388 murine leukemia model. When 1×10^6 leukemia cells are implanted ip into CDF1 female mice, the median survival time for untreated controls was 10 days. […] Mice treated with 45 or 15 mg/kg BMY-42448 on the same schedule had median survival time of 13.5 and 13 days, respectively. Each drug treatment group consisted of 4 mice. The positive control reference drug, olivomycin A, was dosed at 0.4 and 0.2 mg/kg once a day for 5 days beginning one day after implant, with median survival times of 16.5 and 16 days, respectively. Both drugs were administered via the intraperitoneal route. Thus, BMY-42448 was active in the ip/ip P388 model with a maximum tolerated dose of 45 mg/kg.

P388 murine leukemia = test: as above; set-up: species or system murine (CDF1 female mice); details: for median survival time: untreated controls 10 days
Procedure: as §2

P388 tumor = test: iv-implanted P388 tumor model; assay type: in vivo, murine (CDF1 female mice)
Procedure: BMY-42448 was tested in an iv-implanted P388 tumor model. In this model 1×10^6 cells are implanted intravenously in CDF1 female mice. […] Mitomycin C given iv once at 3.2 mg/kg on the day after tumor implant extended median survival to 12 days after tumor implant. BMY-42448 was toxic when administered iv at 10 mg/kg every other day for 3 doses beginning one day after tumor implant.

Row | Molecule | IC50 (B-16 melanoma) [µg/mL] | activity on the B-16 melanoma cell line compared with reference drug (B-16 melanoma; compared with cisplatin) | IC50 (HCT-116 colon) [µg/mL] | activity on the HCT-116 colon cancer line compared with reference drug (HCT-116 colon; compared with mitomycin C) | MTD [1] [mg/kg] | median survival time (P388 murine leukemia; 15 mg/kg ip once a day for 5 days) [days] | median survival time (P388 murine leukemia; 45 mg/kg ip once a day for 5 days) [days] | outcome (drug toxicity) (P388 murine leukemia; 135 mg/kg ip once a day for 5 days beginning 1 day after tumor implant) | activity in the ip/ip P388 model (P388 murine leukemia; ip implant, ip treatment) | median life span (P388 tumor; 1.25 mg/kg iv every other day for 3 doses, untreated control 8 days) [days] | median life span (P388 tumor; 2.5 mg/kg iv every other day for 3 doses, untreated control 8 days) [days] | median life span (P388 tumor; 5 mg/kg iv every other day for 3 doses, untreated control 8 days) [days] | toxicity (P388 tumor; 10 mg/kg iv every other day for 3 doses beginning one day after tumor implant) | activity in iv-implanted P388 model (P388 tumor; 5, 2.5 or 1.25 mg/kg iv every other day for 3 doses) | median survival (P388 tumor; 3.2 mg/kg iv once on the day after tumor implant, untreated control 8 days) [days] | median survival time (P388 murine leukemia; 0.2 mg/kg ip once a day for 5 days) [days] | median survival time (P388 murine leukemia; 0.4 mg/kg ip once a day for 5 days) [days]
1 | CCC1CC23OC(=O)C(=C2O)C(=O)C2(CC)C(C=CC4C(OC5CC(O)C(NC(=O)c6[nH]c(Cl)cc6Cl)C(C)O5)C(C)CCC42)CC=CCC=CC3(C)C=C1C(=O)O (stereo not shown) [BMY-42448] | 16 (≈ 19 µM) | equal to that of cisplatin | 0.25 (≈ 0.297 µM) | equivalent to that of mitomycin C | 45 | 13 | 13.5 | died of drug toxicity | active | 8 | 8 | 8 | toxic | inactive |  |  | 
2 | CO[C@@]12[C@H](COC(N)=O)C3=C(C(=O)C(C)=C(N)C3=O)N1C[C@@H]1N[C@@H]12 [Mitomycin C, reference compound] | 0.98 (≈ 2.93 µM) |  | 0.25 (≈ 0.748 µM) |  |  |  |  |  |  |  |  |  |  |  | 12 |  | 
3 | olivomycin A [reference compound] |  |  |  |  |  |  |  |  |  |  |  |  |  |  |  | 16 | 16.5
